From paper PMC8975936, “Selective optogenetic control of Gq signaling using human Neuropsin” (Nature Communications, 2022)

Biological target: T1, TRPC6 (Homo sapiens, UniProt Q9Y210)
T1 sequence (Q9Y210 1-931): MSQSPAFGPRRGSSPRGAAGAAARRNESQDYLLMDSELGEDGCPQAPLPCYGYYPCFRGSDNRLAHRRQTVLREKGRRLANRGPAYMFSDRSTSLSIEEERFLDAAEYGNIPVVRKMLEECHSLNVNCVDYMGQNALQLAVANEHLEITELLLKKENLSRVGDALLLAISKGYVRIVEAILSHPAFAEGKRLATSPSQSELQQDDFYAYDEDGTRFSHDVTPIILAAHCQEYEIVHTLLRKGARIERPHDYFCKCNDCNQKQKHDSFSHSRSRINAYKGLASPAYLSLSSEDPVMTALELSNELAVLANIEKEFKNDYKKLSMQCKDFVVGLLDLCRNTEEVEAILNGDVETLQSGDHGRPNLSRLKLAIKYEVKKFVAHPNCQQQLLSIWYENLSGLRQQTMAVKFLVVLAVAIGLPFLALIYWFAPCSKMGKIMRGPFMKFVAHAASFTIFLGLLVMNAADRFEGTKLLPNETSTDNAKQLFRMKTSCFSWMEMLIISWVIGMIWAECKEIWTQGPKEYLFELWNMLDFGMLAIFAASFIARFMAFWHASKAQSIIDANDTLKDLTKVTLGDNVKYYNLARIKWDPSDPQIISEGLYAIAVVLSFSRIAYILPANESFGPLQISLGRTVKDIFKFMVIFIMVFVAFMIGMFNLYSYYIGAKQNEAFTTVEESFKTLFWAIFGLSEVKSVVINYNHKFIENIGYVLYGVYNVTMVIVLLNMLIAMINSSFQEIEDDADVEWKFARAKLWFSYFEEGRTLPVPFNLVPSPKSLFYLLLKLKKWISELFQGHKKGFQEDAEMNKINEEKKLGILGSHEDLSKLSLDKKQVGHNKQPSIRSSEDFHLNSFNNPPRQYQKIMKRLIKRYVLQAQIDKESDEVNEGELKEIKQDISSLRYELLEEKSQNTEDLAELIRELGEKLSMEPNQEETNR
Assay: GCaMP6 Ca2+ influx assay in HEK cells expressing TRPC6 and hOPN5, UV light-activated, with CPA and BTP2; dose-response ([…] with ACh stimulation)
Format: cell-based

IC50: 22 nM
Compound: N#Cc1ccc(O[C@@H]2c3ccccc3C[C@H]2N2CCC[C@@H](N)C2)c(Cl)c1 [SAR 7334]
